Reference: ChEMBL document CHEMBL5506000, “Design, synthesis and antibacterial evaluation of low toxicity amphiphilic-cephalosporin derivatives” (Eur J Med Chem, 2024)
≈ marks a conversion by molar mass, not a printed value. Calls of active or inactive are those of the source. The rule behind the calls is not given here.

Experiments:
Escherichia coli = test: Antibacterial activity against Escherichia coli ATCC 25922 by CLSI protocol based assay; format: functional
Staphylococcus aureus [1] = test: Antibacterial activity against Staphylococcus aureus ATCC 29213 by CLSI protocol based assay; format: functional
Enterococcus faecalis = test: Antibacterial activity against Enterococcus faecalis ATCC 29212 by CLSI protocol based assay; format: functional
[2] = Hemolytic activity in sheep RBC; format: toxicity, cell-based, Ovis aries, Erythrocyte; conditions: sheep red blood cells (erythrocytes)
[3] = test system: Stenotrophomonas maltophilia; test: Antibacterial activity against Stenotrophomonas maltophilia ATCC 17808 by CLSI protocol based assay; format: functional
Staphylococcus aureus [4] = test: Antibacterial activity against Staphylococcus aureus assessed as inhibition of metabolic activity at MIC; format: functional
Staphylococcus aureus [5] = test: Antibacterial activity against Staphylococcus aureus assessed as reduction in metabolic activity at sub-MIC; format: functional, organism-based
Staphylococcus aureus [6] = test: Antibacterial activity against methicillin resistant Staphylococcus aureus clinical isolates assessed as 50% inhibition of bacterial growth; format: functional
Staphylococcus aureus [7] = test: Antibacterial activity against methicillin resistant Staphylococcus aureus; format: functional
Cell membrane [8] = test: Induction of inner membrane permeabilization in Staphylococcus aureus assessed as increase in fluorescence intensity at 16 microg/ml by PI staining based analysis; format: cell membranes; conditions: dose 16.0 µg/ml
Cell membrane [9] = test: Induction of cell membrane damage in Staphylococcus aureus assessed as increase in protein leakage; format: cell membranes
Cell membrane [10] = test: Induction of cell membrane depolarization in Staphylococcus aureus assessed as increase in fluorescence intensity at 16 microg/ml by DiSC3(5) dye based assay; format: cell membranes; conditions: dose 16.0 µg/ml
Staphylococcus aureus [11] = test: Antibacterial activity against Staphylococcus aureus measured after 3 to 6 hrs in presence of 50% plasma; format: functional, organism-based; conditions: time 3-6 hrs
Staphylococcus aureus [12] = test: Post-antibiotic effect against Staphylococcus aureus at 4 times of MIC incubated for 1 hrs; format: functional
Staphylococcus aureus [13] = test: Post-antibiotic effect against Staphylococcus aureus at 1 times of MIC incubated for 1 hrs; format: functional
Staphylococcus aureus [14] = test: Antibacterial activity against early exponential growth phase Staphylococcus aureus assessed as reduction in bacterial colony at 8 times of MIC measured at 8 to 24 hrs by time-kill kinetics assay; format: functional, organism-based; conditions: time 8-24 hrs
[15] = Hemolytic activity in sheep RBC assessed as hemolysis rate at 1280 microg/ml relative to control; format: toxicity, cell-based, Ovis aries, Erythrocyte; conditions: sheep red blood cells (erythrocytes), dose 1280 µg/ml, read-out: Activity

Compound | MIC (Escherichia coli) [µg/mL] | MIC (Staphylococcus aureus [1]) [µg/mL] | MIC (Enterococcus faecalis) [µg/mL] | HC50 [2] [µg/mL] | MIC [3] [µg/mL] | further results
CCCCCCNC(=O)c1ccc[n+](CC2=C(C(=O)[O-])N3C(=O)[C@@H](NC(=O)/C(=N\OC(C)(C)C(=O)O)c4csc(N)n4)[C@H]3SC2)c1.O=C(O)C(F)(F)F | 4 | 32 | 128 | > 1280 | 4 | –
CCCCNC(=O)c1cc[n+](CC2=C(C(=O)[O-])N3C(=O)[C@@H](NC(=O)/C(=N\OC(C)(C)C(=O)O)c4csc(N)n4)[C@H]3SC2)cc1.O=C(O)C(F)(F)F | 4 | 64 | 128 | > 1280 | 1 | –
CO/N=C(\C(=O)N[C@@H]1C(=O)N2C(C(=O)[O-])=C(COC(C)=O)CS[C@H]12)c1csc(N)n1.[Na+] [CEFOTAXIME SODIUM] | 2 | 1 | 16 | > 1280 | 2 | inhibition (INH) (Staphylococcus aureus [4]): ~100%; Activity (Staphylococcus aureus [5]): Active
C[C@@H](O)[C@H]1C(=O)N2C(C(=O)O)=C(S[C@@H]3CN[C@H](C(=O)N(C)C)C3)[C@H](C)[C@H]12 [MEROPENEM] | 0.031 (≈ 0.0808 µM) | – | – | > 1280 | 0.031 (≈ 0.0808 µM) | –
CC[C@H]1OC(=O)[C@H](C)[C@@H](O[C@H]2C[C@@](C)(OC)[C@@H](O)[C@H](C)O2)[C@H](C)[C@@H](O[C@@H]2O[C@H](C)C[C@H](N(C)C)[C@H]2O)[C@](C)(O)C[C@@H](C)C(=O)[C@H](C)[C@@H](O)[C@]1(C)O [ERYTHROMYCIN] | – | – | – | – | – | MIC50 (Staphylococcus aureus [6]): > 128 µg/mL
CCCCCCN(Cc1ccc(-c2ccc(CN(CCCCCC)C(=O)[C@@H](N)CCCCN)cc2)cc1)C(=O)[C@@H](N)CCCCN.O=C(O)C(F)(F)F.O=C(O)C(F)(F)F.O=C(O)C(F)(F)F.O=C(O)C(F)(F)F | – | – | – | – | – | MIC (Staphylococcus aureus [7]): 3.1 µg/mL
CCCCCCNC(=O)c1ccc[n+](CC2=C(C(=O)[O-])N3C(=O)[C@@H](NC(=O)/C(=N\OC)c4csc(N)n4)[C@H]3SC2)c1.O=C(O)C(F)(F)F | 4 | 2 | 4 | > 1280 | 2 | –
CCCCNC(=O)c1cc[n+](CC2=C(C(=O)[O-])N3C(=O)[C@@H](NC(=O)/C(=N\OC)c4csc(N)n4)[C@H]3SC2)cc1.O=C(O)C(F)(F)F | 1 | 4 | 4 | > 1280 | 1 | –
CCCCCCNC(=O)c1cc[n+](CC2=C(C(=O)[O-])N3C(=O)[C@@H](NC(=O)/C(=N\OC)c4csc(N)n4)[C@H]3SC2)cc1.O=C(O)C(F)(F)F | 2 | 2 | 4 | > 1280 | 2 | –
CC[C@H](C)[C@H](NC(=O)CN)C(=O)NCC(=O)N[C@@H](C)C(=O)N[C@H](C(=O)N[C@@H](CC(C)C)C(=O)N[C@@H](CCCCN)C(=O)N[C@H](C(=O)N[C@@H](CC(C)C)C(=O)N[C@H](C(=O)N[C@H](C(=O)NCC(=O)N[C@@H](CC(C)C)C(=O)N1CCC[C@H]1C(=O)N[C@@H](C)C(=O)N[C@@H](CC(C)C)C(=O)N[C@H](C(=O)N[C@@H](CO)C(=O)N[C@@H](Cc1c[nH]c2ccccc12)C(=O)N[C@H](C(=O)N[C@@H](CCCCN)C(=O)N[C@@H](CCCNC(=N)N)C(=O)N[C@@H](CCCCN)C(=O)N[C@@H](CCCNC(=N)N)C(=O)N[C@@H](CCC(N)=O)C(=O)N[C@@H](CCC(N)=O)C(N)=O)[C@@H](C)CC)[C@@H](C)CC)[C@@H](C)O)[C@@H](C)O)C(C)C)C(C)C [MELITTIN] | – | – | 2 (≈ 0.703 µM) | – | 8 (≈ 2.81 µM) | inhibition (INH) (Staphylococcus aureus [4]): ~100%; Activity (Staphylococcus aureus [5]): Active; Activity (Cell membrane [8]): Active; Activity (Cell membrane [9]): Active; Activity (Cell membrane [10]): Active
CC(C)(O/N=C(\C(=O)N[C@@H]1C(=O)N2C(C(=O)[O-])=C(C[n+]3ccccc3)CS[C@H]12)c1csc(N)n1)C(=O)O [CEFTAZIDIME] | 0.063 (≈ 0.115 µM) | 16 (≈ 29.3 µM) | 128 (≈ 234 µM) | > 1280 | 0.063 (≈ 0.115 µM) | –
CN[C@H](CC(C)C)C(=O)N[C@H]1C(=O)N[C@@H](CC(N)=O)C(=O)N[C@H]2C(=O)N[C@H]3C(=O)N[C@H](C(=O)N[C@H](C(=O)O)c4cc(O)cc(O)c4-c4cc3ccc4O)[C@H](O)c3ccc(c(Cl)c3)Oc3cc2cc(c3O[C@@H]2O[C@H](CO)[C@@H](O)[C@H](O)[C@H]2O[C@H]2C[C@](C)(N)[C@H](O)[C@H](C)O2)Oc2ccc(cc2Cl)[C@H]1O [VANCOMYCIN] | – | – | 2 (≈ 1.38 µM) | > 1280 | – | Activity (Staphylococcus aureus [11]): Active; PAE (Staphylococcus aureus [12]): 1.37 h; Activity (Cell membrane [10]): inactive; PAE (Staphylococcus aureus [13]): 0.67 h; Activity (Staphylococcus aureus [14]): Active
CCCCCCNC(=O)c1cc[n+](CC2=C(C(=O)[O-])N3C(=O)[C@@H](NC(=O)/C(=N\OC(C)(C)C(=O)O)c4csc(N)n4)[C@H]3SC2)cc1.O=C(O)C(F)(F)F | 32 | 32 | 64 | > 1280 | 8 | –
CCCCCCCCNC(=O)c1cc[n+](CC2=C(C(=O)[O-])N3C(=O)[C@@H](NC(=O)/C(=N\OC(C)(C)C(=O)O)c4csc(N)n4)[C@H]3SC2)cc1.O=C(O)C(F)(F)F | 32 | 32 | > 128 | > 1280 | 64 | –
GENTAMICIN | – | – | – | – | – | Activity (Cell membrane [8]): inactive; Activity (Cell membrane [10]): inactive
CCCCNC(=O)c1ccc[n+](CC2=C(C(=O)[O-])N3C(=O)[C@@H](NC(=O)/C(=N\OC)c4csc(N)n4)[C@H]3SC2)c1.O=C(O)C(F)(F)F | 0.5 | 2 | 4 | > 1280 | 0.5 | –
CCCCCCCCNC(=O)c1cc[n+](CC2=C(C(=O)O)N3C(=O)[C@@H](NC(=O)/C(=N\OC)c4csc(N)n4)[C@H]3SC2)cc1.O=C([O-])C(F)(F)F | 8 | 1 | 2 | > 1280 | 4 | –
CCCCCCCCCCNC(=O)c1ccc[n+](CC2=C(C(=O)[O-])N3C(=O)[C@@H](NC(=O)/C(=N\OC(C)(C)C(=O)O)c4csc(N)n4)[C@H]3SC2)c1.O=C(O)C(F)(F)F | 32 | 32 | 128 | > 1280 | 64 | –
CCCCCCCCCCNC(=O)c1ccc[n+](CC2=C(C(=O)[O-])N3C(=O)[C@@H](NC(=O)/C(=N\OC)c4csc(N)n4)[C@H]3SC2)c1.O=C(O)C(F)(F)F | 8 | 0.5 | 4 | > 1280 | 8 | hemolysis at 1280 microg/ml [15]: 12.7%
CCCCNC(=O)c1ccc[n+](CC2=C(C(=O)[O-])N3C(=O)[C@@H](NC(=O)/C(=N\OC(C)(C)C(=O)O)c4csc(N)n4)[C@H]3SC2)c1.O=C(O)C(F)(F)F | 1 | 32 | 128 | > 1280 | 0.5 | –
CCCCCCCCCCNC(=O)c1cc[n+](CC2=C(C(=O)[O-])N3C(=O)[C@@H](NC(=O)/C(=N\OC(C)(C)C(=O)O)c4csc(N)n4)[C@H]3SC2)cc1.O=C(O)C(F)(F)F | 64 | 32 | > 128 | > 1280 | 128 | –
CCCCCCCCNC(=O)c1ccc[n+](CC2=C(C(=O)[O-])N3C(=O)[C@@H](NC(=O)/C(=N\OC(C)(C)C(=O)O)c4csc(N)n4)[C@H]3SC2)c1.O=C(O)C(F)(F)F | 16 | 32 | 128 | > 1280 | 16 | –
CCCCCCCCCCNC(=O)c1cc[n+](CC2=C(C(=O)[O-])N3C(=O)[C@@H](NC(=O)/C(=N\OC)c4csc(N)n4)[C@H]3SC2)cc1.O=C(O)C(F)(F)F | 8 | 1 | 4 | > 1280 | 8 | –
